Data published in the supplement of paper PMC10307832.

Columns and labels:
Assay in all cases: relative viability (nuclei count vs DMSO), 5 days (fraction); higher = more cells survive
[1] = compound: C1CNCCC1C2=CC(=NN2)C3=CC=NC=C3 + CC(=O)c1c(C)c2cnc(Nc3ccc(N4CCNCC4)cn3)nc2n(C2CCCC2)c1=O [Palbociclib] (partner 0.5 µM)
How it was run: (§1)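 For relative viability, nuclei counts in treated wells were divided by those in vehicle wells. Lung cancer cell lines had been pin-tool dosed in 1536-well plates the day after seeding and cultured for 5 days, then fixed and stained in one step (final 0.05% Triton X-100, 1% formaldehyde, 1 ug/ml Hoechst) and imaged at 4×. Doses were one drug alone or a fixed anchor-drug dose plus five library-drug doses (not always all listed) in √10 steps, and values are duplicate-plate medians.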

[2] = compound: C[C@@H](N)c1ccc(C(=O)Nc2ccnc3[nH]ccc23)cc1 + Cc1cc(Nc2cc(N3CCN(C)CC3)nc(Sc3ccc(NC(=O)C4CC4)cc3)n2)n[nH]1 [Tozasertib] (partner 0.1 µM)
How it was run: as §1

Tanzisertib + Navitoclax = compound: O[C@H]1CC[C@H](Nc2ncc3nc(Nc4c(F)cc(F)cc4F)n([C@H]4CCOC4)c3n2)CC1 [Tanzisertib] + CC1(C)CCC(c2ccc(Cl)cc2)=C(CN2CCN(c3ccc(C(=O)NS(=O)(=O)c4ccc(N[C@H](CCN5CCOCC5)CSc5ccccc5)c(S(=O)(=O)C(F)(F)F)c4)cc3)CC2)C1 [Navitoclax] (partner 0.5 µM)
How it was run: as §1

Tanzisertib + AZD7762 = compound: O[C@H]1CC[C@H](Nc2ncc3nc(Nc4c(F)cc(F)cc4F)n([C@H]4CCOC4)c3n2)CC1 [Tanzisertib] + NC(=O)Nc1cc(-c2cccc(F)c2)sc1C(=O)N[C@H]1CCCNC1 [AZD7762] (partner 0.2 µM)
How it was run: as §1

Row | Cell Line | relative viability ([1]; first compound 0.08 µM) | relative viability ([1]; first compound 0.8 µM) | relative viability ([1]; first compound 2.53 µM) | relative viability ([1]; first compound 8 µM) | relative viability ([2]; first compound 0.04 µM) | relative viability ([2]; first compound 0.1265 µM) | relative viability ([2]; first compound 0.4 µM) | relative viability ([2]; first compound 4 µM) | relative viability (Tanzisertib + Navitoclax; first compound 0.08 µM) | relative viability (Tanzisertib + Navitoclax; first compound 0.253 µM) | relative viability (Tanzisertib + Navitoclax; first compound 0.8 µM) | relative viability (Tanzisertib + Navitoclax; first compound 2.53 µM) | relative viability (Tanzisertib + Navitoclax; first compound 8 µM) | relative viability (Tanzisertib + AZD7762; first compound 0.08 µM) | relative viability (Tanzisertib + AZD7762; first compound 0.253 µM) | relative viability (Tanzisertib + AZD7762; first compound 0.8 µM) | relative viability (Tanzisertib + AZD7762; first compound 2.53 µM) | relative viability (Tanzisertib + AZD7762; first compound 8 µM) | relative viability ([2]; first compound 1.265 µM)
1 | LC-2-ad | 0.532 | 0.548 | 0.462 | 0.437 | 0.469 | 0.523 | 0.512 | 0.441 | 0.549 | 0.441 | 0.548 | 0.534 | 0.507 | 0.839 | 0.898 | 0.867 | 0.833 | 0.676 | 
2 | LCLC-97TM1 | 0.206 | 0.295 | 0.251 | 0.194 | 0.208 | 0.227 | 0.34 | 0.279 |  | 0.53 | 0.38 | 0.394 | 0.462 | 0.302 | 0.334 | 0.207 | 0.264 | 0.151 | 0.343
3 | LK-2 |  | 0.658 | 0.801 | 0.735 | 0.165 |  | 0.17 | 0.171 | 0.871 | 0.847 | 0.87 | 0.884 | 0.9 | 0.41 | 0.455 | 0.421 | 0.32 | 0.346 | 
4 | LOU-NH91 | 0.539 | 0.539 | 0.545 | 0.589 | 0.556 | 0.609 | 0.607 | 0.417 | 0.81 | 0.664 | 0.747 | 0.675 | 0.497 | 0.781 | 0.782 | 0.806 | 0.746 | 0.676 | 0.504
5 | LU99A | 0.405 | 0.389 | 0.435 | 0.391 |  | 0.278 | 0.234 | 0.227 | 0.713 | 0.847 | 0.879 | 0.743 | 0.781 | 0.299 | 0.42 | 0.431 | 0.322 | 0.407 | 0.227
6 | LXF-289 | 0.599 | 0.644 | 0.646 | 0.58 | 0.147 | 0.185 | 0.194 | 0.175 | 1.05 | 0.917 | 1 | 0.962 | 1.03 | 1.21 | 1.09 | 1.19 | 1.1 | 1.12 | 0.168
7 | NCI-H23 | 0.444 |  | 0.602 | 0.647 | 0.377 | 0.358 | 0.425 | 0.501 | 0.964 | 0.75 | 0.912 | 0.86 | 0.819 | 0.224 | 0.245 | 0.236 | 0.317 | 0.214 | 
8 | NCI-H322M | 0.489 | 0.425 | 0.468 | 0.508 | 0.491 | 0.521 | 0.494 | 0.464 | 1.34 | 1.12 | 1.11 | 1.16 | 1.16 | 0.567 | 0.547 | 0.547 | 0.527 | 0.492 | 
9 | NCI-H441 | 0.227 | 0.222 | 0.251 | 0.22 | 0.742 | 0.716 | 0.65 | 0.627 | 0.456 | 0.601 | 0.629 | 0.773 | 0.584 | 1.21 | 0.989 | 1.07 | 1.11 | 1.08 | 
10 | NCI-H460 | 0.105 | 0.179 | 0.315 | 0.303 | 0.606 | 0.405 | 0.571 | 0.771 | 1.32 | 1.21 | 0.986 | 1.2 | 1.24 | 0.661 | 0.627 | 0.591 | 0.63 | 0.628 | 0.392
11 | NCI-H647 | 0.354 | 0.387 | 0.49 | 0.458 | 0.322 | 0.227 | 0.426 | 0.303 | 1.11 | 1.18 | 1.22 | 1.3 | 0.943 | 0.675 | 0.549 | 0.546 | 0.534 | 0.18 | 0.324
12 | NCI-H727 | 0.627 | 0.685 | 0.66 | 0.646 | 0.654 | 0.746 | 0.66 | 0.544 | 0.377 | 0.354 | 0.481 | 0.477 | 0.502 | 0.59 | 0.652 | 0.524 | 0.544 | 0.599 | 0.602
13 | NCI-H838 | 0.225 | 0.194 | 0.249 | 0.247 | 0.268 | 0.281 | 0.224 | 0.189 | 1.18 | 1.15 | 1.26 | 1.18 | 1.12 | 0.964 | 0.962 | 0.889 | 0.909 | 0.972 | 0.219
14 | NCI-H1355 | 0.387 | 0.324 | 0.421 | 0.38 | 0.605 | 0.552 | 0.562 | 0.555 | 0.954 | 0.923 | 0.961 | 0.985 | 0.944 | 0.847 | 0.822 | 0.813 | 0.71 | 0.708 | 0.565
15 | NCI-H1395 | 0.652 | 0.587 | 0.644 | 0.613 | 0.811 | 0.749 | 0.739 | 0.656 | 1.05 | 1.27 | 1.43 | 1.1 | 1.01 | 0.439 | 0.399 | 0.382 | 0.394 | 0.425 | 0.805
16 | NCI-H1437 | 0.356 | 0.335 | 0.352 | 0.368 | 0.462 | 0.433 | 0.448 | 0.408 | 1.14 | 1.1 | 1.08 | 1.13 | 1.08 | 1.15 | 1.15 | 1.12 | 1.12 | 1.12 | 0.436
17 | NCI-H1651 | 0.456 | 0.493 | 0.521 | 0.525 | 0.844 | 0.602 | 0.798 | 0.885 | 1.07 | 0.915 | 1.18 | 1.11 | 0.854 | 0.507 | 0.464 | 0.43 | 0.426 | 0.378 | 0.871
